Earlier results as cited in patent US20130230592A1, “NOVEL OMEGA-3 AND OMEGA-6 FATTY ACID COMPOSITIONS AND USES THEREOF” (priority 2010, published 2013).

Conditions: after oral intake of 750 mg EPA

plasma level: about 417 μmol/L
Structure (SMILES): CCC=CCC=CCC=CCC=CCC=CCCCC(=O)O [EPA, eicosa-5,8,11,14,17-pentaenoic acid]
